How the values were obtained:
Experiment in all cases: relative viability (nuclei count vs DMSO), 5 days (fraction); higher = more cells survive
[1] = compound: CC1=NN=C(O1)C2=NN=C(C=C2)N3CCC(CC3)OC4=C(C=CC(=C4)F)Cl + CC1(C)CCC(c2ccc(Cl)cc2)=C(CN2CCN(c3ccc(C(=O)NS(=O)(=O)c4ccc(N[C@H](CCN5CCOCC5)CSc5ccccc5)c(S(=O)(=O)C(F)(F)F)c4)cc3)CC2)C1 [Navitoclax] (partner 0.5 µM)
Summary of the method: (§1)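 Lung cancer cell lines were pin-tool dosed in 1536-well plates on the day after seeding, with either a lone drug or a fixed anchor-drug dose plus five library-drug doses (not always all listed) in √10 steps. Nuclei were counted on 4× images after 5 days. Relative viability is the ratio of treated-well to vehicle-well nuclei counts, with each value a median of duplicate plates.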

Tosedostat + Trametinib = compound: CC(C)C[C@@H](C(=O)N[C@H](C(=O)OC1CCCC1)c1ccccc1)[C@H](O)C(=O)NO [Tosedostat] + CC(=O)Nc1cccc(-n2c(=O)n(C3CC3)c(=O)c3c(Nc4ccc(I)cc4F)n(C)c(=O)c(C)c32)c1 [Trametinib] (partner 0.02 µM)
Summary of the method: as §1

Tosedostat + Phenformin = compound: CC(C)C[C@@H](C(=O)N[C@H](C(=O)OC1CCCC1)c1ccccc1)[C@H](O)C(=O)NO [Tosedostat] + N=C(N)NC(=N)NCCc1ccccc1 [Phenformin] (partner 250 µM)
Summary of the method: as §1

Tosedostat + Decitabine = compound: CC(C)C[C@@H](C(=O)N[C@H](C(=O)OC1CCCC1)c1ccccc1)[C@H](O)C(=O)NO [Tosedostat] + Nc1ncn([C@H]2C[C@H](O)[C@@H](CO)O2)c(=O)n1 [Decitabine] (partner 2 µM)
Summary of the method: as §1

| Cell Line | relative viability ([1]; first compound 0.253 µM) | relative viability ([1]; first compound 0.8 µM) | relative viability ([1]; first compound 2.53 µM) | relative viability ([1]; first compound 8 µM) | relative viability (Tosedostat + Trametinib; first compound 0.02 µM) | relative viability (Tosedostat + Trametinib; first compound 0.06325 µM) | relative viability (Tosedostat + Trametinib; first compound 0.2 µM) | relative viability (Tosedostat + Trametinib; first compound 0.6325 µM) | relative viability (Tosedostat + Trametinib; first compound 2 µM) | relative viability (Tosedostat + Phenformin; first compound 0.02 µM) | relative viability (Tosedostat + Phenformin; first compound 0.06325 µM) | relative viability (Tosedostat + Phenformin; first compound 0.2 µM) | relative viability (Tosedostat + Phenformin; first compound 0.6325 µM) | relative viability (Tosedostat + Phenformin; first compound 2 µM) | relative viability (Tosedostat + Decitabine; first compound 0.02 µM) | relative viability (Tosedostat + Decitabine; first compound 0.06325 µM) | relative viability (Tosedostat + Decitabine; first compound 0.2 µM) | relative viability (Tosedostat + Decitabine; first compound 0.6325 µM) | relative viability (Tosedostat + Decitabine; first compound 2 µM) |
| --- | --- | --- | --- | --- | --- | --- | --- | --- | --- | --- | --- | --- | --- | --- | --- | --- | --- | --- | --- |
| LK-2 | 0.873 | 0.928 | 0.808 | 0.915 | 0.903 | 0.819 | 0.614 | 0.628 | 0.78 | 0.38 | 0.529 | 0.455 | 0.259 | 0.347 | 0.305 | 0.306 | 0.237 | 0.262 | 0.272 |
| 201T | 0.542 | 0.627 | 0.53 | 0.529 | 0.673 | 0.743 | 0.732 | 0.745 | 0.781 | 0.425 | 0.445 | 0.461 | 0.428 | 0.445 | 0.835 | 0.894 | 0.879 | 0.891 | 0.846 |
| HCC-44 | 0.424 | 0.476 | 0.477 | 0.447 | 1.21 | 1.11 | 1.09 | 1.13 | 1.17 | 0.19 | 0.221 | 0.183 | 0.111 | 0.117 | 0.941 | 0.919 | 0.943 | 0.865 | 0.747 |
| NCI-H838 | 0.959 | 0.954 | 1.05 | 0.979 | 0.559 | 0.446 | 0.52 | 0.596 | 0.59 | 0.489 | 0.56 | 0.519 | 0.659 | 0.711 | 0.483 | 0.449 | 0.431 | 0.421 | 0.392 |
| H3255 | 0.494 | 0.422 | 0.524 | 0.39 | 0.61 | 0.582 | 0.528 | 0.608 | 0.599 | 0.361 | 0.369 | 0.386 | 0.407 | 0.402 | 0.595 | 0.559 | 0.553 | 0.531 | 0.645 |
| PC-14 | 0.742 | 0.717 | 0.719 | 0.702 | 0.856 | 0.758 | 0.781 | 0.67 | 0.531 | 0.653 | 0.54 | 0.452 | 0.448 | 0.38 | 0.218 | 0.177 | 0.146 | 0.0843 | 0.0753 |
| NCI-H322M | 1.17 | 1.11 | 1.11 | 1 | 0.548 | 0.501 | 0.452 | 0.456 | 0.467 | 0.756 | 0.705 | 0.72 | 0.704 | 0.708 | 0.69 | 0.652 | 0.587 | 0.636 | 0.621 |
| NCI-H1944 | 0.637 | 0.665 | 0.733 | 0.672 | 0.422 | 0.396 | 0.4 | 0.395 | 0.422 | 0.21 | 0.194 | 0.217 | 0.196 | 0.211 | 0.456 | 0.431 | 0.458 | 0.416 | 0.39 |
| NCI-H1793 | 0.45 | 0.397 | 0.371 | 0.282 | 0.507 | 0.49 | 0.445 | 0.437 | 0.448 | 0.252 | 0.321 | 0.284 | 0.31 | 0.203 | 0.429 | 0.435 | 0.407 | 0.222 | 0.346 |
| NCI-H727 | 0.479 | 0.36 | 0.368 | 0.262 | 0.398 | 0.37 | 0.413 | 0.412 | 0.376 | 0.705 | 0.485 |  | 0.442 | 0.397 | 0.88 | 0.9 | 0.868 | 0.794 | 0.754 |
| EKVX | 0.451 | 0.368 | 0.429 | 0.423 | 0.229 | 0.338 | 0.433 | 0.373 | 0.292 | 0.216 | 0.236 | 0.228 | 0.202 | 0.192 | 0.37 | 0.34 | 0.292 | 0.313 | 0.332 |
| EPLC-272H | 0.935 |  | 1.11 | 1.01 | 0.29 | 0.296 | 0.305 | 0.324 | 0.25 | 0.288 | 0.299 | 0.259 | 0.239 | 0.189 | 0.364 | 0.37 | 0.363 | 0.328 | 0.254 |
| NCI-H1666 | 0.706 | 0.667 | 0.723 | 0.698 | 0.962 | 0.856 | 0.929 | 0.91 | 0.851 | 0.547 | 0.527 | 0.554 | 0.612 | 0.567 | 0.776 | 0.744 | 0.696 | 0.727 | 0.658 |
| NCI-H1395 | 1.17 | 0.859 | 1 | 1.13 | 0.968 | 1.07 | 1.12 | 1.05 | 1.06 | 0.418 | 0.424 | 0.419 | 0.41 | 0.446 | 0.888 | 0.689 | 0.715 | 0.624 | 0.622 |

Source: the supplement of paper PMC10307832
